Test results as given in PubChem BioAssay AID2060613 (Molecular Pharmacology Branch, DTP, NCI, 2025).
Where “and” joins values, the source holds several entries; their conditions need not be identical. Equal entries are not always repeated.

Tested on: 233499-124-R-J3-PDC complex spheroid viability
Assay: Anticancer human tumor 233499-124-R-J3-PDC patient-derived colon adenocarcinoma cell line growth inhibition [CLK]
Conditions: for viability, T/C: stronger effect = lower value
Outline: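 Multi-cell-type spheroids combined patient-derived tumor cells with HUVEC endothelial cells and human mesenchymal stem cells. Paired agents were dosed in half-log steps down from about clinical Cmax, or from 10 microM where Cmax was unknown.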

[1] = curve of first compound, second compound 0.0316 µM
[2] = curve of first compound, second compound 0.1 µM
[3] = curve of first compound, second compound 0.316 µM
[4] = curve of first compound, second compound 1 µM
[5] = curve of first compound, second compound 3.16 µM
[6] = curve of first compound, second compound 10 µM
[7] = second compound 0.0316 µM, first compound 0.0316 µM
[8] = second compound 0.0316 µM, first compound 0.1 µM
[9] = second compound 0.0316 µM, first compound 0.316 µM
[10] = second compound 0.0316 µM, first compound 1 µM
[11] = second compound 0.1 µM, first compound 0.0316 µM
[12] = second compound 0.1 µM, first compound 0.1 µM
[13] = second compound 0.1 µM, first compound 0.316 µM
[14] = second compound 0.1 µM, first compound 1 µM
[15] = second compound 0.316 µM, first compound 0.0316 µM
[16] = second compound 0.316 µM, first compound 0.1 µM
[17] = second compound 0.316 µM, first compound 0.316 µM
[18] = second compound 0.316 µM, first compound 1 µM
[19] = second compound 1 µM, first compound 0.0316 µM
[20] = second compound 1 µM, first compound 0.1 µM
[21] = second compound 1 µM, first compound 0.316 µM
[22] = second compound 1 µM, first compound 1 µM
[23] = second compound 3.16 µM, first compound 0.0316 µM
[24] = second compound 3.16 µM, first compound 0.1 µM
[25] = second compound 3.16 µM, first compound 0.316 µM
[26] = second compound 3.16 µM, first compound 1 µM
[27] = second compound 10 µM, first compound 0.0316 µM
[28] = second compound 10 µM, first compound 0.1 µM
[29] = second compound 10 µM, first compound 0.316 µM
[30] = second compound 10 µM, first compound 1 µM
[31] = second compound 0.0316 µM, first compound 3.16 µM
[32] = second compound 0.0316 µM, first compound 10 µM
[33] = second compound 0.1 µM, first compound 3.16 µM
[34] = second compound 0.1 µM, first compound 10 µM
[35] = second compound 0.316 µM, first compound 3.16 µM
[36] = second compound 0.316 µM, first compound 10 µM
[37] = second compound 1 µM, first compound 3.16 µM
[38] = second compound 1 µM, first compound 10 µM
[39] = second compound 3.16 µM, first compound 3.16 µM
[40] = second compound 3.16 µM, first compound 10 µM
[41] = second compound 10 µM, first compound 3.16 µM
[42] = second compound 10 µM, first compound 10 µM
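Further: spheroids exposed to the drug combinations for seven days.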
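Wherever viability, T/C is given: percent viability relative to DMSO vehicle control wells taken as 100%.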

CCN1CCN(Cc2ccc(Nc3ncc(F)c(-c4cc(F)c5nc(C)n(C(C)C)c5c4)n3)nc2)CC1 + CNC(=O)c1ccc(Nc2nc(OC3CCCC3)c3c(-c4ccc5nc(C)oc5c4)c[nH]c3n2)c(OC)c1
IC50 [1]: > 1000 nM | IC50 [2]: > 1000 nM | IC50 [3]: > 1000 nM | IC50 [4]: 971 nM | IC50 [5]: > 1000 nM | IC50 [6]: > 1000 nM | viability, T/C (second compound 0.0316 µM, first compound 0.00316 µM): 88.3% | viability, T/C (second compound 0.0316 µM, first compound 0.01 µM): 98.3% | viability, T/C [7]: 90% | viability, T/C [8]: 106% | viability, T/C [9]: 102% | viability, T/C [10]: 70.1% | viability, T/C (second compound 0.1 µM, first compound 0.00316 µM): 71.7% | viability, T/C (second compound 0.1 µM, first compound 0.01 µM): 91.6% | viability, T/C [11]: 84.8% | viability, T/C [12]: 83.8% | viability, T/C [13]: 89.3% | viability, T/C [14]: 64% | viability, T/C (second compound 0.316 µM, first compound 0.00316 µM): 68.8% | viability, T/C (second compound 0.316 µM, first compound 0.01 µM): 84.3% | viability, T/C [15]: 78% | viability, T/C [16]: 94.2% | viability, T/C [17]: 62.7% | viability, T/C [18]: 53.1% | viability, T/C (second compound 1 µM, first compound 0.00316 µM): 77.2% | viability, T/C (second compound 1 µM, first compound 0.01 µM): 85.9% | viability, T/C [19]: 74.3% | viability, T/C [20]: 85.3% | viability, T/C [21]: 84.5% | viability, T/C [22]: 49.2% | viability, T/C (second compound 3.16 µM, first compound 0.00316 µM): 81.1% | viability, T/C (second compound 3.16 µM, first compound 0.01 µM): 75.2% | viability, T/C [23]: 78.1% | viability, T/C [24]: 78.7% | viability, T/C [25]: 97.2% | viability, T/C [26]: 57.6% | viability, T/C (second compound 10 µM, first compound 0.00316 µM): 76.4% | viability, T/C (second compound 10 µM, first compound 0.01 µM): 80.9% | viability, T/C [27]: 66.8% | viability, T/C [28]: 74.5% | viability, T/C [29]: 60.1% | viability, T/C [30]: 51.1%

CC(C)CC(NC(=O)C(Cc1ccccc1)NC(=O)c1cnccn1)B(O)O (stereo not given)
viability, T/C (compound 0.000949 µM): 101% and 106% | viability, T/C (compound 0.003 µM): 88.8% and 88.5% | viability, T/C (compound 0.00949 µM): 0.33% and 0.18% | viability, T/C (compound 0.03 µM): 0.31% and 0.22% | viability, T/C (compound 0.0949 µM): 0.13% and 0.2% | viability, T/C (compound 0.3 µM): 0.14% and 0.2% | IC50 (curve of compound): 4.97 nM and 4.96 nM

O=c1[nH]cc(F)c(=O)[nH]1 + CNC(=O)c1ccc(Nc2nc(OC3CCCC3)c3c(-c4ccc5nc(C)oc5c4)c[nH]c3n2)c(OC)c1
IC50 [1]: 316 nM | IC50 [2]: 199 nM | IC50 [3]: 166 nM | IC50 [4]: 166 nM | IC50 [5]: 150 nM | IC50 [6]: 195 nM | viability, T/C [7]: 91.5% | viability, T/C [8]: 95.7% | viability, T/C [9]: 49.8% | viability, T/C [10]: 28.5% | viability, T/C [31]: 20.1% | viability, T/C [32]: 19.1% | viability, T/C [11]: 73% | viability, T/C [12]: 72.4% | viability, T/C [13]: 35.2% | viability, T/C [14]: 21.4% | viability, T/C [33]: 15.1% | viability, T/C [34]: 20.4% | viability, T/C [15]: 81% | viability, T/C [16]: 60.5% | viability, T/C [17]: 36.8% | viability, T/C [18]: 20.7% | viability, T/C [35]: 14.9% | viability, T/C [36]: 16.5% | viability, T/C [19]: 70.6% | viability, T/C [20]: 68.7% | viability, T/C [21]: 26.2% | viability, T/C [22]: 11.4% | viability, T/C [37]: 7.78% | viability, T/C [38]: 9.54% | viability, T/C [23]: 70.8% | viability, T/C [24]: 63.1% | viability, T/C [25]: 26.9% | viability, T/C [26]: 15.5% | viability, T/C [39]: 7.07% | viability, T/C [40]: 6.87% | viability, T/C [27]: 69.6% | viability, T/C [28]: 75.3% | viability, T/C [29]: 33.6% | viability, T/C [30]: 16% | viability, T/C [41]: 7.38% | viability, T/C [42]: 8.24%

CCCS(=O)(=O)Nc1ccc(F)c(C(=O)c2c[nH]c3ncc(-c4ccc(Cl)cc4)cc23)c1F
viability, T/C (compound 0.0316 µM): 91.2% and 100% | viability, T/C (compound 0.1 µM): 97.3% and 103% | viability, T/C (compound 0.316 µM): 111% and 99.1% | viability, T/C (compound 1 µM): 104% and 110% | viability, T/C (compound 3.16 µM): 104% and 105% | viability, T/C (compound 10 µM): 98% and 65.2% | IC50 (curve of compound): > 10000 nM

Nc1ccccc1NC(=O)c1ccc(CNC(=O)OCc2cccnc2)cc1 + CNC(=O)c1ccc(Nc2nc(OC3CCCC3)c3c(-c4ccc5nc(C)oc5c4)c[nH]c3n2)c(OC)c1
IC50 [1]: 1830 nM | IC50 [2]: 731 nM | IC50 [3]: 233 nM | IC50 [4]: 199 nM | IC50 [5]: 443 nM | IC50 [6]: 157 nM | viability, T/C [7]: 96.7% | viability, T/C [8]: 86% | viability, T/C [9]: 91.8% | viability, T/C [10]: 79.7% | viability, T/C [31]: 23.1% | viability, T/C [32]: 0.94% | viability, T/C [11]: 64.9% | viability, T/C [12]: 67.4% | viability, T/C [13]: 63.6% | viability, T/C [14]: 44.8% | viability, T/C [33]: 9.08% | viability, T/C [34]: 0.5% | viability, T/C [15]: 77% | viability, T/C [16]: 66.7% | viability, T/C [17]: 43.6% | viability, T/C [18]: 20% | viability, T/C [35]: 4.82% | viability, T/C [36]: 0.23% | viability, T/C [19]: 74.6% | viability, T/C [20]: 70.1% | viability, T/C [21]: 35.7% | viability, T/C [22]: 15.2% | viability, T/C [37]: 2.15% | viability, T/C [38]: 0.09% | viability, T/C [23]: 71.1% | viability, T/C [24]: 65.6% | viability, T/C [25]: 67.2% | viability, T/C [26]: 8.74% | viability, T/C [39]: 1.22% | viability, T/C [40]: 0.1% | viability, T/C [27]: 70.8% | viability, T/C [28]: 50.4% | viability, T/C [29]: 44.5% | viability, T/C [30]: 20.6% | viability, T/C [41]: 1.09% | viability, T/C [42]: 0.15%
